These results are taken from patent US20020115212A1, “Enchanced PKR expression and cytokine production” (priority 2000, published 2002).

The target in one test is PKR (Homo sapiens, UniProt P19525). As to conditions: stated as known; cited from earlier work.
Test [1] relates to proinflammatory cytokines. In words: Induction of other proinflammatory cytokines by virus or poly I:C in the presence of 2-aminopurine. In kind it is cell-based. The note with it: results not shown.
Test [2] concerns IFN-alpha production in Namalwa PKR++41.027 and WT Namalwa cells. Put plainly: IFN-alpha production (ELISA) after PMA priming and Sendai virus or poly I:C induction in the presence of 2-aminopurine. In kind it is cell-based, human. The note with it: 5 mM 2-aminopurine, 20 nM PMA 24 hr, Namalwa PKR++41.027 and WT cells.
Description: Parallel experiments were performed on duplicate cultures of the individual subclones of Namalwa PKR++41.027 cells and WT Namalwa cells. These cultures were also pretreated with 20 nM phorbol myristate acetate at a cell density 5.0×10^5 cells/ml, in 6 well plates for 24 hr followed by treatment with 500 HAU/ml Sendai virus or poly I:C (200 μg/ml) plus 10 μg/ml DEAE Dextran. In addition these cultures were also treated with the PKR inhibitor 5 mM 2-aminopurine (2AP; obtained from Aldrich Chemical Company). Culture supernatants from the Sendai virus-induced cells were removed at 24 hr, post-induction and culture supernatants from the Poly I:C-induced cells were removed at 72 hr and evaluated for IFN alpha production using ELISA (PBL Catalogue No. 41105 Human Interferon Alpha Multi-Species ELISA Kit).
The test system is the same in test [3]. In words: IFN-alpha production (ELISA) after PMA priming and poly I:C induction. In kind it is cell-based, human. The note with it: 20 nM PMA 24 hr, 200 μg/mL poly I:C plus 10 μg/mL DEAE Dextran, 72 hr. How it is done:
Cells from individual subclones of Namalwa PKR++41.027 cells and WT Namalwa cells were pretreated with 20 nM phorbol myristate acetate at a cell density 5.0×10^5 cells/ml, in 6 well plates for 24 hrs followed by treatment with 500 HAU/ml Sendai virus or 200 μg/mL poly I:C plus 10 μg/mL DEAE Dextran for an additional 72 hr to induce IFN expression. Culture supernatants from the Sendai virus-treated cells were removed at 24 hr and 48 hr post-induction and supernatants from the Poly I:C treated cells were removed at 72 hr. IFN-alpha production was measured in these cell culture supernates using ELISA (Human Interferon Alpha Multi-Species ELISA Kit obtained from PBL).
FIG. 5 illustrates IFN-alpha production was enhanced following both Sendai virus and PolyI:C induction in Namalwa PKR++41.027 cells relative to IFN-alpha production by wild type Namalwa cells as shown in FIG. 5.

Sequence of PKR (P19525 whole entry): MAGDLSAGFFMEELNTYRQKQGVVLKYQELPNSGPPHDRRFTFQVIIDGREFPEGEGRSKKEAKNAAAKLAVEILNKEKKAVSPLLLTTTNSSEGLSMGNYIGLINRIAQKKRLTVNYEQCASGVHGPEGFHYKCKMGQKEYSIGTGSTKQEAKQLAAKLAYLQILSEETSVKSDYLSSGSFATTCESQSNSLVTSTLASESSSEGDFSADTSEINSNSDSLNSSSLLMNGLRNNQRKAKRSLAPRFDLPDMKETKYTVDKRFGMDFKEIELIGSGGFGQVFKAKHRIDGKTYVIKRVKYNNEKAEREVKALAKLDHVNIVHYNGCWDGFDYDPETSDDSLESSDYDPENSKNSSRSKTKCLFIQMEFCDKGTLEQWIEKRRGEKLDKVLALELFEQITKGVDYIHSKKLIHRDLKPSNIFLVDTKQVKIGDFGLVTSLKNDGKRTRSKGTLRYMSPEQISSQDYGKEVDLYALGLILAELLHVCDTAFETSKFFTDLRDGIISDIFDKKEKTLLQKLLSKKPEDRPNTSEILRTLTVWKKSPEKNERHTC

On to `Nc1ncc2[nH]cnc2n1` [2-aminopurine], for which, at PKR, the PKR kinase activity result is “known inhibitor”. Moreover, the “induction of other proinflammatory cytokines by virus or poly I:C” value in test [1] is “inhibits”. Moreover, in test [2] (500 HAU/ml Sendai virus, supernatant at 24 hr), the “IFN-alpha production following Sendai virus induction” value was “decreased”. In test [2] (poly I:C 200 μg/ml plus 10 μg/ml DEAE Dextran, supernatant at 72 hr), the “IFN-alpha production following poly I:C induction” value is on record as “decreased”.
poly I:C: in test [3], the “IFN-alpha induction in Namalwa PKR++41.027 cells” value is “capable of inducing IFN” and the “IFN-alpha induction in parental wild type Namalwa cells” value is listed as “absence of detectable IFN-alpha induction”.
